Legend:
[1] = test system: hES-cell teratoma-derived tumor cells (WA09, TE06); assay: Annexin V / PI flow cytometry for apoptosis after Taxol and Purvalanol A treatment in vitro; assay type: cell-based, human; conditions: 0.2 µM Taxol 16 hours and/or 10 µM Purvalanol A 16 hours, sequential, versus DMSO, n=5
Description: FACS: Annexin V and PI staining for apoptosis detection was performed using the Annexin V-PE kit (Bender MedSystems) according to the manufacturer's instructions. FACS analysis was performed using FACSCaliber system (Becton Dickinson). Analysis was performed on […] software (Becton Dickinson). Forward and side scatter plots were used to exclude debris from the histogram analysis.
The medium was then replaced with a medium containing […] Purvalanol A (Sigma), and the cells were cultured for an additional 16 hours. Other wells were treated with either Taxol for 16 hours followed by DMSO (the solution vehicle) for 16 hours or DMSO for 16 hours followed by Purvalanol A for 16 hours. Control wells were treated twice with DMSO at the same time points. Mice bearing hES-cell teratomas for 30 d were injected intraperitoneally with 7 mg/kg Taxol and 24 hours later were injected with 60 mg/kg Purvalanol A. Reagents were injected in a solution of DMSO/PEG400 at 1:1 ratio. Control mice received vehicle injections at the same time points. Mice were euthanized 18 hours after the last injection. Fresh frozen […] teratoma sections were subjected to TUNEL using the ApoAlert DNA Fragmentation Assay Kit (Clontech) according to the manufacturer's instructions.

tumor cell = conditions: both in vitro and in vivo; cited from earlier work

SMILES	fold increase in apoptotic cells (Annexin V positive) [1]	tumor cell death by apoptosis (tumor cell)
CC(C)[C@H](CO)Nc1nc(Nc2cccc(Cl)c2)c2ncn(C(C)C)c2n1 [Purvalanol A]	no significant effect	negligible results
CC(=O)O[C@H]1C(=O)[C@@]2(C)[C@H]([C@H](OC(=O)c3ccccc3)[C@]3(O)C[C@H](OC(=O)[C@H](O)[C@@H](NC(=O)c4ccccc4)c4ccccc4)C(C)=C1C3(C)C)[C@]1(OC(C)=O)CO[C@@H]1C[C@@H]2O [Taxol]	–	negligible results

Source: patent US20120171213A1, “METHOD OF TREATING TUMORS” (Yissum Research Development Company of the Hebrew …, priority 2009, published 2012)
